Results on three molecules are retold here after US20070122400A1, “Composition having liver function protecting effect” (priority 2003, published 2007).

SMILES strings stand for the structures.

Data set [1] has as its system liver dysfunction model using carbon tetrachloride. The data set can be described thus: liver dysfunction model using carbon tetrachloride, plasma GPT activity. The format is in vivo, male SD rats. The following applies: rats; for GPT activity in the plasma sample, relative to the control group: 100 mg/kg oral in soy oil about 17 h before 50% carbon tetrachloride 2.0 ml/kg i.p., plasma 24 hours after carbon tetrachloride, n=4; for GPT activity in the plasma, rank among the groups: 100 mg/kg oral, 24 hours after carbon tetrachloride, same tendency at 48 hours and 72 hours, control group highest. The protocol: The effects of coenzyme Q10 on protecting liver functions from disorders and preventing liver dysfunctions were examined by establishing a liver dysfunction model using carbon tetrachloride. A soy oil solution of oxidized coenzyme Q10 or reduced coenzyme Q10 with approximately 2% of oxidized coenzyme Q10 was orally administered to male SD rats (6 weeks old) at a dosage of 100 mg/kg. About 16 hours after the administration, blood was collected from the jugular vein using heparin as an anticoagulant. After one hour, 50% carbon tetrachloride (product of Nacalai Tesque, Inc.)/olive oil (product of Wako Pure Chemical Industries, Ltd.) was intraperitoneally administered at a dosage of 2.0 ml/kg. Blood was collected 24 hours, 48 hours, and 72 hours after the administration of carbon tetrachloride. The collected blood samples were centrifuged to obtain plasma samples. The GPT activity of each plasma sample was measured using a kit, Transaminase CII-Test Wako (product of Wako Pure Chemical Industries, Ltd.).

The subject of data set [2] is Liver dysfunction induced by carbon tetrachloride. The settings on record: rats, intraperitoneal administration; cited from earlier work.
The conditions of data set [3]: rats, daily dosage of 1,200 mg/kg continuously for 52 weeks; cited from earlier work.

On to `COC1=C(OC)C(=O)C(C/C=C(\C)CC/C=C(\C)CC/C=C(\C)CC/C=C(\C)CC/C=C(\C)CC/C=C(\C)CC/C=C(\C)CC/C=C(\C)CC/C=C(\C)CCC=C(C)C)=C(C)C1=O` [oxidized coenzyme Q10], for which, in data set [1], the “GPT activity in the plasma sample, relative to the control group” value is “about 60 % of the control group” and the “GPT activity in the plasma, rank among the groups” value is recorded as “the next highest”. In addition, the “liver dysfunction induced by carbon tetrachloride” value in data set [2] is “suppressed”.
On to `COC1=C(OC)C(=O)C(C/C=C(\C)CC/C=C(\C)CC/C=C(\C)CC/C=C(\C)CC/C=C(\C)CC/C=C(\C)CC/C=C(\C)CC/C=C(\C)CC/C=C(\C)CCC=C(C)C)=C(C)C1=O` [Coenzyme Q10], for which the “toxic effects in chronic toxicity test” value in data set [3] is recorded as “no toxic effects”.
Turning to `COc1c(O)c(C)c(C/C=C(\C)CC/C=C(\C)CC/C=C(\C)CC/C=C(\C)CC/C=C(\C)CC/C=C(\C)CC/C=C(\C)CC/C=C(\C)CC/C=C(\C)CCC=C(C)C)c(O)c1OC` [reduced coenzyme Q10], in data set [1], the “GPT activity in the plasma sample, relative to the control group” value is reported as “about 25 % of the control group” and the “GPT activity in the plasma, rank among the groups” value is reported as “the lowest”.
